This is an account of results in patent publication US12139488B2, “Pyrido[3,2-d]pyrimidine compounds uses thereof for treating a proliferative disease” (Universite de Montreal, priority 2021, dated 2024).

Assay type in all cases: cell-based, human
One assay deals with HT29 cells (BRAF V600E). Nature of the assay: Proliferation inhibition (CellTiter-Glo), HT29. As to conditions: HT-29, 3 days, read-out: HT-29 Prolif. EC50. Here is the method:
(§1) All cancer cell lines (A375, A101D, A2058, RKO, HT29 SK-MEL 30, IPC298, HepG2, HCT-116, Lovo, SWV620, SW480, NCI-H358, NCI-H2122, Calu-6, NCIH2087, NCIH1755, NCIH1666 and Mewo) were obtained from ATCC and cultured in RPMI-1640 medium (Gibco) supplemented with 5% heat inactivated fetal bovine serum (FBS, Wisent) at 37° C. under 5% CO2. Cells were maintained in T175 flasks (Greiner). They were passaged by removing the culture medium, washing once in 10 mL of room temperature Phosphate Buffered Saline (PBS; Wisent) and incubating at 37° C. with 2 mL of 0.05% Trypsin (Thermo-Fisher). Trypsin was then inactivated by adding complete growth medium and the cells were then replated in a T175 culture dish at the appropriate dilution. All cell lines were routinely tested for mycoplasma contamination. Tissue type and mutational status of each cell line can be found in Table B.
(§2) CellTiter-Glo® viability analysis was conducted on cells plated in 100 μL of complete RPMI-1640 growth medium in 96-well flat-bottomed white opaque plates (Greiner or Croning) at a density indicated in Table E (for each CCL, number of cells plated per well of a 96-well plate to perform the CellTiter-Glo® cell viability assay). The cell density in cells/cm^2 would correspond to cell number divided by the area of one well of a 96-well plate (0.32 cm^2). […]
(§3) After 3 days of incubation, the growth media were removed by aspiration and 60 μL of diluted CellTiter-Glo® reagent (10 μL CellTiter-Glo® reagent+50 μL of PBS) was added to each well. […] Luminescence signals were then acquired on a Synergy Neo2 plate reader (Biotek).
(§4) The effect of each compound dilution on the proliferation of cancer cell lines was expressed in % inhibition and calculated as follows. […]
(§5) The ability of each compound to inhibit proliferation was expressed as a EC50 value obtained by plotting the effect values for each data point of a dilution series and fitting the obtained curves using a log(agonist) versus response-variable slope (four parameters) function using GraphPadPrism (V7.0) or Dotmatics Screening Ultra platform.

The test system of another assay is Mewo cells (NF1 LOF). Nature of the assay: Proliferation inhibition (CellTiter-Glo), Mewo. As to conditions: 3 days, read-out: Mewo Prolif. EC50. Here is the method: as §1, §2, §3, §4, §5
Assay [1] concerns pERK in NCIH1755 cells (BRAF G469A). In words: Phospho-ERK inhibition (AlphaLISA), NCIH1755. As to conditions: for NCIH1755 pERK % Ymin: NCIH1755, value in parentheses. Here is the method: as §1
(§6) AlphaLISA® SureFire® Ultra™ p-ERK 1/2 (Thr202/Tyr204) analysis was conducted on cells plated in 100 μL of complete RPMI-1640 growth medium in 96-well flat-bottomed transparent dishes (Costar) at a density indicated in Table C. Cells were maintained overnight at 37° C. under 5% CO2 before treatment with compounds' dilution series for one hour. The cell density in cells/cm^2 corresponds to cell number divided by the area of one well of a 96-well plate ([…]).
(§7) In a dilution series 100 μL/well of test substance dilution prepared in complete RPMI-1640 growth media was added to the cells. The dilution series is selected so that ten concentrations cover a range from 10 μM to 0.33 nM. If necessary the initial concentration of 10 μM is increased to 100 μM or lowered to 1 μM (as in the case of A375 and H1666 cells, which are generally more sensitive to the compounds) and further dilution is carried out accordingly. The final concentration of DMSO in the assay is set at 0.5%.
(§8) After treatment, media was removed and cells were lysed in 50 μL of 1× AlphaScreen Ultra Lysis Buffer (Perkin Elmer). The AlphaLISA® SureFire® Ultra™ p-ERK 1/2 (Thr202/Tyr2O4) (PerkinElmer) reactions were performed with 5 μL of cell lysate according to the manufacturer's specifications in 384-well proxyplates (Perkin Elmer) followed by overnight incubation of the reactions at room temperature in a humidified chamber. After completion of the reactions, the signals were recorded on an EnVision plate reader (Perkin Elmer) using built in AlphaLISA® settings.
(§9) The effect of each compound dilution on the pERK signal was expressed in % inhibition and calculated as follows. An internal 100% inhibition control ([…] trametinib, cat #HY-10999; MedChem Express; CAS #871700-17-3) was included in each plate and used as a measure of pERK background. First, the value obtained for trametinib was subtracted from each data point. The average of DMSO (vehicle) controls (set as 0% inhibition) was established and used to calculate % inhibition: % inhibition=100*(1-((pERK signalcompound)/(pERK signalDMSO)))
(§10) The ability of each compound to inhibit pERK signal was expressed as an IC50 value obtained by plotting the inhibition values for each data point of a dilution series and fitting the obtained curves using a log(agonist) versus response-variable slope (four parameters) function using GraphPadPrism (V7.0) or Dotmatics Screening Ultra platform.
(§11) When present, paradoxical pERK induction is inferred from the negative % inhibition values observed in the pERK IC50 curves of a compound.

Another assay deals with RKO cells (BRAF V600E). In words: Proliferation inhibition (CellTiter-Glo), RKO. As to conditions: 3 days, read-out: RKO Prolif. EC50. On the procedure:
as §1, §2, §3, §4, §5

Assay [2] concerns NCI-H358 cells (KRAS-G12C). Nature of the assay: Proliferation inhibition (CellTiter-Glo), NCI-H358. Particulars: NCI-H358, 3 days, read-out: NCI-H358 Prolif. EC50. On the procedure: as §1, §2, §3, §4, §5
Assay [3] has as its system pERK in SW620 cells (KRAS-G12V). Nature of the assay: Phospho-ERK inhibition (AlphaLISA), SW620. Particulars: for SW620 pERK % Ymin: SW620, value in parentheses. Here is the method:
as §1, §6, §7, §8, §9, §10, §11

Read-outs that look alike come from different tables or passages of the source.

With `CC1(O)CCN(c2cccc3c2ncn3-c2ccc3ncnc(Nc4c(F)ccc(NS(=O)(=O)c5cccc(Cl)c5Cl)c4F)c3n2)CC1` [Example 524], the EC50 (in the assay with HT29 cells (BRAF V600E); with Mewo cells (NF1 LOF); in the assay with RKO cells (BRAF V600E); in assay [2]) was under 30 nM each time. Besides, the IC50 in assay [1] (NCIH1755) and in assay [3] (SW620) was 30 to 300 nM in each case. For the same compound, the “NCIH1755 pERK % Ymin” value in assay [1] is recorded as −13%. Besides, the “SW620 pERK % Ymin” value in assay [3] is on record as −4%.

In the case of `Cc1ccc2c(Nc3cccc(Cl)c3F)nccc2c1NC(=O)c1csc2c(N)ncnc12` [Belvarafenib, reference compound], the EC50 in the assay with HT29 cells (BRAF V600E) (Homo sapiens, 72 h) was under 30 nM; in the assay with Mewo cells (NF1 LOF) (Homo sapiens, 72 h), 300 to 3000 nM; with RKO cells (BRAF V600E) (Homo sapiens, 72 h), under 30 nM; in assay [2] (Homo sapiens, 72 h), 300 to 3000 nM. In addition, the IC50 was in the range of 30 to 300 nM in assay [1] (Homo sapiens, NCI-H1755) and 30 to 300 nM in assay [3] (Homo sapiens, SW-620). In addition, the “NCIH1755 pERK % Ymin” value in assay [1] was −79%. Further, the “SW620 pERK % Ymin” value in assay [3] is reported as −151%.

Regarding `Nc1cccc2c1ncn2-c1ccc2ncnc(Nc3c(F)ccc(NS(=O)(=O)c4cccc(Cl)c4Cl)c3F)c2n1` [Example 99], the EC50 (in the assay with HT29 cells (BRAF V600E); in the assay with Mewo cells (NF1 LOF); in the assay with RKO cells (BRAF V600E); in assay [2]) was under 30 nM throughout. Besides, the 50% inhibitory concentration (IC50) is under 30 nM in assay [1] (NCIH1755) and 30 to 300 nM in assay [3] (SW620). Moreover, the “NCIH1755 pERK % Ymin” value in assay [1] is −8%. For the same compound, the “SW620 pERK % Ymin” value in assay [3] is −11%.
